# Measured values: PMC12679550 (ACS Chemical Neuroscience, 2025)
# Entries after “also recorded” stand apart in the source; their conditions may differ.
# Experiments:
# α2AR = target: T1, α2AR (Homo sapiens, UniProt P08913)
# T1 sequence (P08913 1-465): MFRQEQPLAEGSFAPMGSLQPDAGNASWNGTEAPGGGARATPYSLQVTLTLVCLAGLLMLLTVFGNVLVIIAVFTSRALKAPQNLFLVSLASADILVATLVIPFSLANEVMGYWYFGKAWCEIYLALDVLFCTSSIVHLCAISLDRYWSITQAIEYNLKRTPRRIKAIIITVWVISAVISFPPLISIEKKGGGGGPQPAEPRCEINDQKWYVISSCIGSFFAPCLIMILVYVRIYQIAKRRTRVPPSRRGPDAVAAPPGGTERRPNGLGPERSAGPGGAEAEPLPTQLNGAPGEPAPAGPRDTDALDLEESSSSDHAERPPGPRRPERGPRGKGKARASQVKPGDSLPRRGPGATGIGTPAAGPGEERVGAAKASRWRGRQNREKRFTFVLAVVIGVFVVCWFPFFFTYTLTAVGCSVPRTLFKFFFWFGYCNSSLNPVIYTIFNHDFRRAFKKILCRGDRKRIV
# [1] = system: pERK in nontransfected HEK293 cells; assay: ERK phosphorylation in nontransfected, knockout and antagonist-cotreated HEK293 cells; format: cell-based, human
# Experimental: Cells were serum-starved for 75 min and treated with ligands in 1 mL of fresh DMEM in the absence of serum as described in the figure legends. Cells were washed three times with ice-cold phosphate-buffered saline, lysed on ice in Radio-Immunoprecipitation Assay buffer, centrifuged to clarify the supernatant, normalized to protein concentration, and boiled in Laemmli sample buffer. Following sodium dodecyl sulfate–polyacrylamide gel electrophoresis, gels were transferred, blocked in 5% BSA and incubated with 1:1000 rabbit phospho-ERK1/2 (#9101, Cell Signaling Technology, Danvers, MA) and imaged with enhanced chemiluminescence (ECL). Blots were stripped and reprobed with rabbit ERK1/2 (#9102, Cell Signaling Technology) antibody and imaged with ECL to assess protein loading.
substance,measurement,setting,value
mitragynine,Activation of α2AR-Gαs(short),α2AR; Figure S1,did not activate α2AR–Gαs; also recorded: no effect
same,Activation of the seven Gαi/o-protein subtypes coupled to α2AR,α2AR; concentrations up to 30 μM,did not activate any of the seven Gαi/o-protein subtypes
same,Activation of Gαq or Gα11 via α2ARs,α2AR; data not shown,no effect
same,Kb,"α2AR; read-out: Kb, antagonist, αi1, α2AR-Gαi1, antagonism of clonidine, Gaddum-Schild",5.65 µM
same,"EC50, αgust",α2AR; α2AR-Gαgust,inactive
same,"EC50, αi2",α2AR; α2AR-Gαi2,inactive
same,"EC50, αi3",α2AR; α2AR-Gαi3,inactive
same,"EC50, αoA",α2AR; α2AR-GαoA,inactive
same,"EC50, αoB",α2AR; α2AR-GαoB,inactive
same,"EC50, αz",α2AR; α2AR-Gαz,inactive
same,pERK-stimulating effect in Gαq/11 knockout HEK293 cells,"[1]; 1 μM, 5 min, vs CRISPR scrambled",abolished
same,pERK-stimulating effect with 100 nM atipamezole cotreatment,[1]; HEK293,did not affect
same,pERK-stimulating effect with 100 nM prazosin cotreatment,"[1]; HEK293, CLON and ISO 1 μM, mitragynine 1 μM",abolished
